The test system of assay [1] is B. cinerea. Briefly: ELISA-based inhibition assay of B. cinerea growth. Conditions: compared to hydrophobins from T. harzianum strains T22 and M10. Format: cell-based, Botrytis cinerea. From the text: FIG. 4. Antifungal effect of HYTLO1 on B. cinerea growth compared to similar hydrophobins purified from T. harzianum strain T22 and T. harzianum strain M10. Assay protocol is described in Lorito M. et al. 1994. Microbiology UK, 140:623-629. Numbers on the left side indicate micro molar concentration of HYTLO1 used. T22 and M10=hydrophobin from strain T22 and M10, respectively. The inhibition of the pathogen colony is indicated by the reduced intensity of the dark color in the wells compared to control (C).
For orientation: An ELISA detects its analyte on a solid surface through an enzyme-linked reagent.

For assay [2], the system named is B. cinerea. In words: infection of tomato leaves by the pathogen B. cinerea. Format: in vivo, Botrytis cinerea. Conditions: 10 μL applied to tomato leaf 2 hours before B. cinerea spores; up to 72 hr after inoculation. As to the method: FIG. 8: Effect of purified HYTLO1 application on the infection of tomato leaves by the pathogen B. cinerea. 10 μL of a solution of HYTLO1 were applied to tomato leaves and 2 hours later 10 μL of a B. cinerea spore suspension 1×10^6/ml were applied on the same spot. The measures were taken 72 hours post inoculation. The standard deviation bars were obtained from at least three different experiments, with five replicates and a total of 15 treated leaves per treatment. In order to determine if purified HYTLO1 is able to protect the plant from foliar infection by a pathogenic fungus, the protein was tested on tomato grown-up plants against Botrytis cinerea.

In another assay the test system is tomato. Briefly: tomato root development (seeds, cuttings). Format: in vivo. As to the method:
FIG. 9: Effect of purified HYTLO1 application on tomato plant and root development. Tomato roots (left) and tomato cuttings (right) were dipped in a HYTLO1 solution of 0.018 μM.
In order to investigate the effect of HYTLO1 on the development of plants, either at the level of seed germination, germling formation and survival, root formation, stem elongation and thickness, foliar development, as well as general plant size, various experiments were performed with the purified protein. […] The protein clearly stimulated rhizogenesis on different plants. […] Experiments on plants were performed in vivo by watering and spraying tomato plants with a HYTLO1 0.01 μM solution as described in the legend of FIG. 10. In these experiments, the effect of HYTLO1 was also compared with that of the commercial biocontrol strain T. harzianum T22 (applied as spore suspension according the typical application rate of commercial products) and that of the germinating hormone 1-naphthaleneacetic acid (GERMON E—produced by L. Gobbi, Italy) (applied at the typical application rate of commercial products). Applications were made once per week for one month by watering the tomato plants. Results, expressed in terms of plant height and length, root length and weight, number of leaves, stem diameter and weight, are combined and shown in FIG. 10 and FIG. 11.

The next assay deals with tomato plants. In words: tomato plant growth, watering and spraying. Format: in vivo. The following applies: 0.01 μM, once per week for one month; vs T. harzianum T22, GERMON E and untreated control. From the text:
FIG. 10: Effect of HYTLO1 on tomato plant growth as compared to treatment with T. harzianum strain T22 or the Commercial product GERMON E (G-E) base on the auxin 1-naphthaleneacetic acid, commercialized by L. Gobbi, Italy. (A) Growth increase of root and stem of HYTLO1 vs. water control, GERMON E or T22, 10 days after treatment. (B) Increase of root development (HYTLO1 treatment on the left, untreated control on the right), (C) Effect of HYTLO1 on plant size compared to T22. (D) Effect of HYTLO1 on root development compared to water control, T22, GERMON E (also in combination with HYTLO1). HYTLO1 was applied at final concentration in the soil at 10^−8 M.
FIG. 11: Effect of purified HYTLO1 on tomato plants, applied by drench on the roots or by spraying on the leaves. For the irrigation, 50 ml of a solution containing 0.072 μg/ml of HYTLO1 (0.01 μM) were applied for each pot containing 1 litre of soil and 2 tomato plants, for a total of 4 applications. For foliar application, 20 ml of a solution containing 0.072 μg/ml (0.01 μM) of HYTLO1 were sprayed for each pot containing 2 tomato plants for a total of 4 applications. […]

A further assay relates to Arabidopsis thaliana. In words: growth of Arabidopsis. Type of assay: in vivo. The following applies: 0.01 μM drench every two days for one month. As to the method:
(§1) FIG. 12: Effect of purified HYTLO1 on the growth of Arabidopsis (A), percentage seed germination of cucumber (B) and plantlet development of Lotus japonicus (C). A: Arabidopsis thaliana (Columbia-0: Col-0) seeds were sown in Levington's F2 compost plus sand (JFC Munro, Devon; http://www.jfcmonro.com) and chilled for 2 days at 4° C. Plants were grown under short-day conditions (10 h light) in a controlled environment chamber, at 22° C. during the day and 18° C. at night with 60% relative humidity for 5-6 weeks before transplanting. Ten ml of sterile solutions of HYTLO1 were drenched every two days at concentrations 0.072 μg/ml (0.01 μM) for one month in each pot containing 100 ml of soil and 1 Arabidopsis plant. Untreated plants were used as controls. B: Sterile cucumber seeds were placed on magenta box containing half-strength Murashige and Skoog salt (MS) medium (ICN Biomedicals) containing 1% agar and 1.5% sucrose, adjusted to pH 5.7, and vernalized for 2 days at 4° C. in the absence of light. A sterile solutions of HYTLO1 was added to the substrate at final concentration of 10^−8 M before the solidification of agar. C: The same concentration of HYTLO1 was used in the agarized medium used for the L. japonicus test. […]

In assay [3] the test system is Lotus japonicus. In words: plantlet development of Lotus japonicus. The following applies: 10^−8 M in agarized medium. Format: in vivo. How it is done: as §1
Assay [4] concerns Lotus japonicus. In words: Rhizobium lotii on Lotus japonicus in vitro system, plant growth and nodule density. Format: in vivo. Conditions: HYTLO1 0.07 μM, 6PP 0.002 μM, 4 weeks after seeding. How it is done:
Wt+Rhz=treatment with R. loti, Wt-Rhz without R. loti. (D) Growth measured after 4 weeks, in the absence (cont) or presence of Rhizoba R. loti ((+) Rhiz). The purified molecules were added to the sterile MS media and poured into Petri dishes. Data were recorded 4 weeks after seeding of L. japonicus.
FIG. 18. […] (HYT=HYTLO1 at 0.07 μM, 6PP at 0.002 μM, HA=Harzianic Acid at 0.001 μM). Wt=control with R. loti without metabolites. The purified molecules were added to the sterile MS media and poured into Petri dishes. Average number of nodules per cm of root are indicated. Data were recorded 4 weeks after seeding of L. japonicus.
In order to test the effect of HYTLO1, as well as of the secondary metabolites HA and 6PP on the growth promotion activity of Rhizobia, such as Rhizobium sp., on legumimosae plants, we used a standard Rhizobium lotii on Lotus japonicus in vitro system (Barbulova et al., 2005, Functional Plant Biology, 32:529-536). Plant growth and nodule density on the roots were scored four weeks after seeding by comparing untreated controls and the various treatments.

This note sets out measurements from patent publication US10875898B2, “Bioactive protein, use thereof and method for its production” (Koppert B.V., priority 2014, dated 2020).

A value given as a limit tells only on which side of the number the result lay.

For “HYTLO1: about 7 KDa Type II hydrophobin protein from Trichoderma longibrachiatum strain MK1, 71 aa, SEQ ID NO: 1”, the “antifungal effect on B. cinerea growth” value in the assay on B. cinerea [1] was “strong antifungal effect”. For the same substance, in the assay on B. cinerea [2], the “concentration of HYTLO1 that significantly reduced the size of the necrotic area” value is recorded as “above 1.25 μM”. The “concentration promoting root growth and development” value with tomato (assays on cuttings) was not below 0.31 µM. The “de novo root formation on tomato cuttings” value with tomato (cuttings dipped in 0.075 and 0.018 μM, after 15 days, no roots in controls) is “formed de novo roots”. In addition, in the assay with tomato (tomato seeds germinated with HYTLO1 10^−6 to 10^−9 M, data not shown), the “root apparatus of plantlets vs untreated control” value is “more than double”. The “growth parameters (plant height and length, root length and weight, number of leaves, stem diameter and weight)” value in the assay with tomato plants is given as “increased all of the growth parameters”. Also, the growth promotion effect entry in the assay on Arabidopsis thaliana is reported as “confirmed”. Besides, the “growth promotion effect (plantlet development)” value in the assay with Lotus japonicus [3] was “confirmed”. The “plant growth promotion effect of Rhizobia on Lotus japonicus” value with Lotus japonicus [4] (HA 0.001 μM in MS media) was “enhances the plant growth promotion effect of Rhizobia”. The “nodule formation (number of nodules per cm of root)” value with Lotus japonicus [4] (HA 0.001 μM, with R. loti) was “Enhancement of nodule formation”.
